Test [1] deals with isolated rat brain mitochondria. The test can be described thus: t-BuOOH-induced oxidative stress in isolated rat brain mitochondria. In kind it is cell-based. To be noted: 75 μM, vs non-treated mitochondria. As to the method:
(§1) Two types of buffers were used for the isolation of the rat brain synaptosomes and mitochondria. Buffer A was 5 mM HEPES and 0.32 M Sucrose; Buffer B was 290 mM NaCl, 0.95 mM MgCl2 × 2H2O, 10 mM KCl, 2.4 mM CaCl2 × 2H2O, 2.1 mM NaH2PO4, 44 mM HEPES, 13 mM D-Glucose. For the gradient centrifugation, Percoll reagent was used. A stock solution of 90% Percoll was used to prepare 16%, 10% and 7.5% solutions. All the solutions were used as described below. Immediately after harvesting, synaptosomes, microsomes, and mitochondria were incubated with the exam compounds for 1 h. For assessing the possible neurotoxicity of the most MAOB active compounds, the sub-cellular fractions were incubated with 100 µM of them, and for evaluating their possible neuroprotective and antioxidant activities in different models of neurotoxicity, the sub-cellular fractions were incubated with 50µM of them. The protein measurement of all the sub-cellular fractions was made by the method of Lowry et al., 1951 [57].
The mitochondria were prepared by multiple differential fractionation using a Percoll gradient.
The mitochondria were incubated with 75 μM t-BuOOH [57].
After incubation of the mitochondria, 0.3 mL 0.2% TBA and 0.25 mL sulfuric acid (0.05 M) were added to stop the reaction. The tubes were maintained at 100 °C for 30 min. In the next stage, centrifugation of the tubes was carried out at 3500× g for 10 min. Assessment of the total quantity of MDA formed in each sample was measured in the supernatant at 532 nm.
After incubation of mitochondria, 0.04% DTNB was mixed with the mitochondrial suspensions in 0.1 M phosphate buffer (pH 7.4). The absorbance of the yellow product was measured at 412 nm.

Test [2] has as its system isolated rat brain synaptosomes. The test can be described thus: 6-OHDA-induced neurotoxicity in isolated rat brain synaptosomes. In kind it is cell-based. Conditions: 150 μM, vs non-treated synaptosomes. As to the method:
as §1
The synaptosomes were prepared from rat brains by multiple sub-cellular fractionation using a Percoll gradient.
This in vitro model resembles the neurodegenerative processes occurring in PD. Dopamine metabolism and oxidation led to the formation of reactive oxygen species (ROS) and reactive quinones. These processes were catalyzed by the MAOB enzyme. They induced dopamine neurotoxicity and neurodegeneration. The synaptosomes were incubated with 150 μM 6-OHDA for 1 h.
After the incubation, the synaptosomes were centrifuged three times at 15,000× g for 1 min. MTT-test was performed to determine synaptosomal vitality by the method described by Mungarro-Menchaca et al..
The level of GSH was determined by measuring the non-protein SH-groups after precipitation of the proteins with trichloroacetic acid (TCA). The presence of thiols in the supernatant was determined using Elmman’s reagent. The resulting yellow color was measured spectrophotometrically (λ = 412 nm).

Results on two compounds are retold here after publication PMC12655551, “Design, Synthesis, and Evaluation of Pyrrole-Based Selective MAO-B Inhibitors with Additional AChE Inhibitory and Neuroprotective Properties Identified via Virtual Screening” (Pharmaceuticals, 2025).

Consider `CC(C)(C)OO` [t-BuOOH, tert-butyl hydroperoxide, reference compound], for which, in test [1], the “decrease of GSH level by the toxic agent alone” value is on record as 50% and the “increase of MDA production by the toxic agent alone” value worked out at 150%.
As to `NCCc1cc(O)c(O)cc1O` [Compound 6-OHDA, 6-hydroxydopamine, reference compound], in test [2], the “decrease of GSH level by the toxic agent alone” value is 50% and the “decrease of synaptosomal viability by the toxic agent alone” value was determined as 50%.
